Among the data in patent US20250304537A1 (Repare Therapeutics Inc., priority 2022, published 2025) are IC50 values, retold here.

Bounds are passed on as bounds.

Chain of recombinant human Myt1 (full length PKMYT1) (Q99640 whole entry): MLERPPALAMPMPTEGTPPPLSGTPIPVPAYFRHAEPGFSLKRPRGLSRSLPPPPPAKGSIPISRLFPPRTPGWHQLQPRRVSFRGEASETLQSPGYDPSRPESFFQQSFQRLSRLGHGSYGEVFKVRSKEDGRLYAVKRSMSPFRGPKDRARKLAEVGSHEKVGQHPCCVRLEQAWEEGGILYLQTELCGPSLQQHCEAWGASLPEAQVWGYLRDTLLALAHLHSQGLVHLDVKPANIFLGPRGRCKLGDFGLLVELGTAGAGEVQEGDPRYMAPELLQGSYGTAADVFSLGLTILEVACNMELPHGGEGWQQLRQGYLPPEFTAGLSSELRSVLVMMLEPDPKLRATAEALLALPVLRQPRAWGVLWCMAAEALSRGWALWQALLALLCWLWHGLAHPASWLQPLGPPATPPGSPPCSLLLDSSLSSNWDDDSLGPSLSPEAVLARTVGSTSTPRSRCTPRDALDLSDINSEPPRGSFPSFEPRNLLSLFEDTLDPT

This assay deals with recombinant human Myt1 (full length PKMYT1) (Homo sapiens (Human), UniProt Q99640). The experiment in a line: Recombinant human Myt1 kinase assay (ADP-Glo). In kind it is biochemical. The following applies: 10 μM ATP. How it is done:
Detection of Myt1 kinase activity utilized a recombinant human Myt1 kinase assay measuring the hydrolysis of ATP using a commercially available ADP-Glo Assay (ADP-Glo™ Kinase Assay from Promega, 10 000 assays, #V9102). Briefly, 5 μL recombinant human Myt1 (full length PKMYT1 recombinant human protein expressed in insect cells from Thermo Fisher #A33387; ˜80% purity) was prepared in reaction buffer (70 mM HEPES, 3 mM MgCl2, 3 mM MnCl2, 50 μg/ml PEG 20000, 3 μM Na-orthovanadate, 1.2 mM DTT) and added to 384 well white polystyrene, flat bottom well, non-treated, microplate (Corning #3572). After this, 5 μL of compounds (diluted in reaction buffer to 0.5% DMSO) was added to the microplate and the plate was spun briefly and incubated at 22° C. for 15 minutes. Ultra-Pure Adenosine Triphosphate (ATP) solution (ADP-Glo kit from Promega) was diluted in reaction buffer and 5 μL was added to the microplate, spun down briefly and incubated for 60 minutes at 30° C. The final Myt1 enzyme concentration was 18 nM and the final ATP concentration was 10 μM. After the 60-minute incubation, 15 μL of ADP-Glo reagent was added and the plate was spun briefly and sealed and incubated in the dark for 40 minutes at 22° C. Following this, 30 μL of kinase detection reagent was added per well and the plate was spun briefly, sealed and incubated for 45-60 minutes at 22° C. in the dark. Luminescence was read using the Envision (250 ms integration). The IC50 and the % max inhibition were calculated for each inhibitor compound tested.
Consider `Cc1ccc2[nH]ncc2c1-c1nc(-c2ccc(Oc3ccccc3)cc2)nc(C(N)=O)c1N` [Compound 113], for which the IC50 was 1110 nM. As to `Cc1n[nH]c2cccc(-c3nc(-c4ccccc4)nc(C(N)=O)c3N)c12` [Compound 116], the IC50 was more than 5000 nM. As for `Cc1ccc2[nH]ncc2c1-c1nc(-c2ccccn2)nc(C(N)=O)c1N` [Compound 117], the IC50 was found to be 90 nM.

Take `Cc1ccc2[nH]ncc2c1-c1nc(-c2ccc(OC3CCOCC3)c(C#N)c2)nc(C(N)=O)c1N` [Compound 118]: the IC50 was 309 nM. On to `Cc1ccc2[nH]ncc2c1-c1nc(-c2ccc3cnn(C)c3c2)nc(C(N)=O)c1N` [Compound 119], for which the IC50 was 25 nM. For `COCCOc1ccc(-c2nc(C(N)=O)c(N)c(-c3c(C)ccc4[nH]ncc34)n2)cc1` [Compound 124], the IC50 amounted to 25 nM. In the case of `Cc1ccc2[nH]ncc2c1-c1nc(-c2ccc(C3(C#N)CC3)cc2)nc(C(N)=O)c1N` [Compound 125], the IC50 came out at 51 nM. For `Cc1ccc2[nH]ncc2c1-c1nc(-c2cccc(C(C)(C)C#N)c2)nc(C(N)=O)c1N` [Compound 126], the IC50 came to 27 nM. With `Cc1ccc2[nH]ncc2c1-c1nc(-c2ccc(OC3CC3)cc2)nc(C(N)=O)c1N` [Compound 127], the IC50 is 120 nM. To `CC(=O)c1ccc(-c2nc(C(N)=O)c(N)c(-c3c(C)ccc4[nH]ncc34)n2)cc1` [Compound 128] belongs 57 nM.

For `Cc1ccc2[nH]ncc2c1-c1nc(-c2ccc3cn[nH]c3c2)nc(C(N)=O)c1N` [Compound 129], the IC50 turned out to be 23 nM. Take `Cc1ccc2[nH]ncc2c1-c1cc(-c2ccccn2)cc(C(N)=O)c1N` [Compound 137, 2-amino-3-(5-methyl-1H-indazol-4-yl)-5-(pyridin-2-yl)benzamide]: the IC50 is 46 nM. As to `COCCCOc1ccc(-c2nc(C(N)=O)c(N)c(-c3c(C)ccc4[nH]ncc34)n2)cc1` [Compound 138], the IC50 amounted to 43 nM. For `Cc1ccc2[nH]ncc2c1-c1nc(-c2cccc(N(C)C)c2)nc(C(N)=O)c1N` [Compound 139], the IC50 was found to be 57 nM. On to `CNc1cccc(-c2nc(C(N)=O)c(N)c(-c3c(C)ccc4[nH]ncc34)n2)c1` [Compound 140], for which the IC50 worked out at 48 nM. Take `COc1cccc(-c2nc(C(N)=O)c(N)c(-c3c(C)ccc4[nH]ncc34)n2)c1` [Compound 141]: the IC50 was 23 nM. Take `Cc1ccc2[nH]ncc2c1-c1nc(-c2cccc(N3CCCC3)c2)nc(C(N)=O)c1N` [Compound 142]: the IC50 came out at 54 nM. For `Cc1cc(-c2nc(C(N)=O)c(N)c(-c3c(C)ccc4[nH]ncc34)n2)cc(C(F)(F)F)c1` [Compound 144] the value was 130 nM; for `Cc1ccc2[nH]ncc2c1-c1nc(-c2ccc(N(C)C)cc2)nc(C(N)=O)c1N` [Compound 145], 57 nM. For the compound `Cc1ccc2[nH]ncc2c1-c1nc(-c2ccc(CN3CCOCC3)cc2)nc(C(N)=O)c1N` [Compound 147], the IC50 came out at 217 nM. To `Cc1csc(-c2nc(C(N)=O)c(N)c(-c3c(C)ccc4[nH]ncc34)n2)c1` [Compound 148] belongs 69 nM.

Turning to `Cc1ccc(O)c(C)c1-c1cc(-c2ccnnc2)cc(C(N)=O)c1N` [Compound 149], the IC50 was 735 nM. For `Cc1ccc2[nH]ncc2c1-c1nc(-c2cccc(C(=O)O)c2)nc(C(N)=O)c1N` [Compound 150], the IC50 was found to be 1110 nM. For `Cc1cc(-c2nc(C(N)=O)c(N)c(-c3c(C)ccc4[nH]ncc34)n2)ccc1C#N` [Compound 151] the value was 27 nM; for `CNc1ccc(-c2nc(C(N)=O)c(N)c(-c3c(C)ccc4[nH]ncc34)n2)cc1` [Compound 152], 44 nM.

With `Cc1ccc2[nH]ncc2c1-c1nc(-c2ccnc(C(F)(F)F)c2)nc(C(N)=O)c1N` [Compound 153], the IC50 was 27 nM. Regarding `Cc1ccc2[nH]ncc2c1-c1nc(-c2ccnc(N3CCN(C)CC3)c2)nc(C(N)=O)c1N` [Compound 154], the 50% inhibitory concentration (IC50) was 30 nM. In the case of `Cc1ccc2[nH]ncc2c1-c1nc(-c2ccnc(N3CCOCC3)c2)nc(C(N)=O)c1N` [Compound 155], the IC50 is 15 nM.

As to `Cc1ccc2[nH]ncc2c1-c1nc(-c2ccc(CN3CCOCC3)s2)nc(C(N)=O)c1N` [Compound 156], the IC50 was 17 nM. For `Cc1ccc2[nH]ncc2c1-c1nc(-c2ccc(N3CCOCC3)c(C(F)(F)F)c2)nc(C(N)=O)c1N` [Compound 157], the 50% inhibitory concentration (IC50) was 904 nM.

With `Cc1ccc2[nH]ncc2c1-c1nc(-c2ccc(C#N)s2)nc(C(N)=O)c1N` [Compound 158], the IC50 is 21 nM. For `Cc1ccc2[nH]ncc2c1-c1nc(-c2ccc(C(=O)O)s2)nc(C(N)=O)c1N` [Compound 162], the IC50 turned out to be 198 nM. Turning to `Cc1ccc2[nH]ncc2c1-c1cc(-c2ccn(C)n2)nc(C(N)=O)c1N` [Compound 171], the IC50 amounted to 96 nM. On to `Cc1ccc2[nH]ncc2c1-c1cc(-c2cn(C)cn2)nc(C(N)=O)c1N` [Compound 172], for which the IC50 is 53 nM. In the case of `Cc1ccc2[nH]ncc2c1-c1cc(-c2cccc(OCC(F)(F)F)c2)nc(C(N)=O)c1N` [Compound 175], the IC50 is 364 nM. As for `Cc1ccc2[nH]ncc2c1-c1cc(-c2ccnc(OC3COC3)n2)nc(C(N)=O)c1N` [Compound 176], the IC50 stood at 770 nM. With `Cc1ccc2[nH]ncc2c1-c1cc(-c2ccc(=O)[nH]c2)nc(C(N)=O)c1N` [Compound 178], the IC50 came to 68 nM. `COc1ccccc1COc1cccc(-c2cc(-c3c(C)ccc4[nH]ncc34)c(N)c(C(N)=O)n2)n1` [Compound 181]: the IC50 was 103 nM. Regarding `Cc1ccc2[nH]ncc2c1-c1cc(-c2cccc(N3CCSCC3)n2)nc(C(N)=O)c1N` [Compound 187], the IC50 was found to be 78 nM.

As for `Cc1ccc2[nH]ncc2c1-c1cc(-c2ccnc(OCCOCCN(C)C)n2)nc(C(N)=O)c1N` [Compound 192], the IC50 amounted to 25 nM. For `Cc1ccc2[nH]ncc2c1-c1cc(-c2ccnc(OC3CN(C(=O)OC(C)(C)C)C3)n2)nc(C(N)=O)c1N` [Compound 193] the value was 191 nM; for `Cc1ccc2[nH]ncc2c1-c1cc(-c2ccnc(OCCOc3ccccc3)n2)nc(C(N)=O)c1N` [Compound 195], 182 nM; for `Cc1ccc2[nH]ncc2c1-c1cc(-c2ccnc(OCc3cc4ccccc4o3)n2)nc(C(N)=O)c1N` [Compound 196], 754 nM. As for `Cc1ccc2[nH]ncc2c1-c1cc(-c2ccc(OC3COC3)nc2)nc(C(N)=O)c1N` [Compound 201], the IC50 was determined as 91 nM. As to `Cc1ccc2[nH]ncc2c1-c1cc(-c2cccc(Oc3ccccn3)n2)nc(C(N)=O)c1N` [Compound 202], the IC50 amounted to 107 nM. Take `Cc1ccc2[nH]ncc2c1-c1cc(-c2ccnc(OCCN(C)C(=O)OC(C)(C)C)n2)nc(C(N)=O)c1N` [Compound 209]: the IC50 worked out at 73 nM. To `CCCCc1cc(-c2c(C)ccc3[nH]ncc23)c(N)c(C(N)=O)n1` [Compound 216, 3-amino-6-butyl-4-(5-methyl-1H-indazol-4-yl)picolinamide] belongs 1510 nM; to `Cc1ccc2[nH]ncc2c1-c1cc(-c2cccc(N3CCOCC3)n2)nc(C(N)=O)c1N` [Compound 217], 13 nM; to `Cc1ccc2[nH]ncc2c1-c1cc(-c2cnc(C(C)(C)O)s2)nc(C(N)=O)c1N` [Compound 218], 230 nM. In the case of `Cc1ccc2[nH]ncc2c1-c1cc(-c2ncccn2)nc(C(N)=O)c1N` [Compound 219], the IC50 turned out to be 56 nM.
